# According to patent US10167262B2, “Herbicidal substituted 3-arylpyrazoles” (FMC CORPORATION, priority 2014, dated 2019):
# Where “and” joins values, the source holds several entries; their conditions need not be identical. Equal values may be shown once.
# How the values were obtained:
# Type in all cases: in vivo
# [1] = test system: chickweed (common chickweed, Stellaria media); assay: Test D postemergence controlled growth environment test, plant response rating 0-100
# Excerpt: (§1) Seeds of plant species selected from bluegrass (annual bluegrass, Poa annua), blackgrass (Alopecurus myosuroides), canarygrass (Phalaris minor), chickweed (common chickweed, Stellaria media), galium (catchweed bedstraw, Galium aparine), downy bromegrass (Bromus tectorum), field violet (Viola arvensis), green foxtail (Setaria viridis), deadnettle (henbit deadnettle, Lamium amplexicaule), Italian ryegrass (Lolium multiflorum), kochia (Kochia scoparia), lambsquarters (Chenopodium album), oilseed rape (Brassica napus), pigweed (Amaranthus retroflexus), Russian thistle (Salsola kali), spring barley (Hordeum vulgare), spring wheat (Triticum aestivum), wild buckwheat (Polygonum convolvulus), wild mustard (Sinapis arvensis), wild oat (Avena fatua), windgrass (Apera spica-venti), winter barley (Hordeum vulgare), and winter wheat (Triticum aestivum) were planted in pots containing Redi-Earth® planting medium (Scotts Company, 14111 Scottslawn Road, Marysville, Ohio 43041) comprising spaghnum peat moss, vermiculite, wetting agent and starter nutrients and treated with postemergence applications of test chemicals formulated in a non-phytotoxic solvent mixture which included a surfactant. Plants ranged in height from 2 to 18 cm (1- to 4-leaf stage). Treated plants and controls were maintained in a controlled growth environment for 14 days after which time all species were compared to controls and visually evaluated. Plant response ratings, summarized in Table D, are based on a scale of 0 to 100 where 0 is no effect and 100 is complete control. A dash (-) response means no test result.
# [2] = test system: oilseed rape (Brassica napus); assay: as above
# Excerpt: as §1
# [3] = test system: winter barley (Hordeum vulgare); assay: as above
# Excerpt: as §1
# [4] = test system: lambsquarters (Chenopodium album); assay: as above
# Excerpt: as §1
# [5] = test system: spring barley (Hordeum vulgare); assay: as above
# Excerpt: as §1
# [6] = test system: wild mustard (Sinapis arvensis); assay: as above
# Excerpt: as §1
# [7] = test system: bluegrass (annual bluegrass, Poa annua); assay: as above
# Excerpt: as §1
# [8] = test system: Italian ryegrass (Lolium multiflorum); assay: as above
# Excerpt: as §1
# [9] = test system: blackgrass (Alopecurus myosuroides); assay: as above
# Excerpt: as §1
# [10] = test system: downy bromegrass (Bromus tectorum); assay: as above
# Excerpt: as §1
# [11] = test system: palmer pigweed (AMAPA, Amaranthus palmeri); assay: Test H postemergence mixture test of compound 39 with commercial herbicides, observed and Colby expected effect 0-100; details: Cmpd 39 alone, 14 days after treatment
# Excerpt: (§2) This test evaluated the effect of mixtures of compound 39 with three commercial herbicides on five plant species. Seeds of plant species selected from corn (ZEAMD, Zea mays), soybean (GLXMA, Glycine max), palmer pigweed (AMAPA, Amaranthus palmeri), waterhemp (common waterhemp, AMATA, Amaranthus rudis), and Kochia (KCHSC, Kochia scoparia) were planted in pots containing Redi-Earth® planting medium (Scotts Company, 14111 Scottslawn Road, Marysville, Ohio 43041) comprising spaghnum peat moss, vermiculite, wetting agent and starter nutrients and treated with postemergence applications of test chemicals formulated in a non-phytotoxic solvent mixture which included a surfactant and applied using a volume of 299 L/ha. Each treatment was replicated four times. Treated plants and controls were maintained in a greenhouse using supplemental lighting to maintain a photoperiod of about 16 h; daytime and nighttime temperatures were about 24-30° C. and 19-21° C., respectively. Nutrients were applied using a balanced fertilizer applied through the watering system. At 14 days after treatment, all species were compared to controls and visually evaluated. Plant response ratings were calculated as the mean of the four replicates, are summarized in Tables H1 through H6, and are based on a scale of 0 to 100 where 0 is no effect and 100 is complete control. A dash (-) response means no test result.
# (§3) Colby's Equation was used to determine the herbicidal effects expected from the mixtures. Colby's Equation (Colby, S. R. “Calculating Synergistic and Antagonistic Responses of Herbicide Combinations,” Weeds, 15(1), pp 20-22 (1967)) calculates the expected additive effect of herbicidal mixtures and for two active ingredients is of the form: Pa+b=Pa+Pb−(PaPb/100) • where • Pa+b is the percentage effect of the mixture expected from additive contribution of the individual components: • Pa is the observed percentage effect of the first active ingredient at the same use rate as in the mixture, and • Pb is the observed percentage effect of the second active ingredient at the same use rate as in the mixture. In the following Tables, rates are shown in grams of active ingredient per hectare (g a.i./ha); “Obsd.” is the observed effect. “Exp.” is the expected effect calculated from Colby's Equation.
# corn (ZEAMD, Zea mays) = assay: as above; details: Cmpd 39 alone, 14 days after treatment
# Excerpt: as §2, §3
# [12] = test system: Kochia (KCHSC, Kochia scoparia); assay: as above; details: Cmpd 39 alone, 14 days after treatment
# Excerpt: as §2, §3
# [13] = test system: waterhemp (common waterhemp, AMATA, Amaranthus rudis); assay: as above; details: Cmpd 39 alone, 14 days after treatment
# Excerpt: as §2, §3
smiles,measurement,setting,value
"Clc1cc(Cl)cc(-c2n[nH]cc2C(=NN2CCCC2)c2ccccc2)c1 [Compound 30, N-[[3-(3,5-dichlorophenyl)-1H-pyrazol-4-yl]phenylmethylene]-1-pyrrolidinamine]","Plant response rating, Chickweed",[1]; 16 g ai/ha,0
same,"Plant response rating, Chickweed",[1]; 31 g ai/ha,0
same,"Plant response rating, Chickweed",[1]; 62 g ai/ha,10
same,"Plant response rating, Chickweed",[1]; 125 g ai/ha,40
same,"Plant response rating, Chickweed",[1]; 250 g ai/ha,75
same,"Plant response rating, Oilseed Rape",[2]; 16 g ai/ha,30
same,"Plant response rating, Oilseed Rape",[2]; 31 g ai/ha,50
same,"Plant response rating, Oilseed Rape",[2]; 62 g ai/ha,60
same,"Plant response rating, Oilseed Rape",[2]; 125 g ai/ha,85
same,"Plant response rating, Oilseed Rape",[2]; 250 g ai/ha,0
same,"Plant response rating, Barley, Winter",[3]; 16 g ai/ha,0
same,"Plant response rating, Barley, Winter",[3]; 31 g ai/ha,0
same,"Plant response rating, Barley, Winter",[3]; 62 g ai/ha,0
same,"Plant response rating, Barley, Winter",[3]; 125 g ai/ha,0
same,"Plant response rating, Barley, Winter",[3]; 250 g ai/ha,0
same,"Plant response rating, Lambsquarters",[4]; 16 g ai/ha,0
same,"Plant response rating, Lambsquarters",[4]; 31 g ai/ha,0
same,"Plant response rating, Lambsquarters",[4]; 62 g ai/ha,30
same,"Plant response rating, Lambsquarters",[4]; 125 g ai/ha,40
same,"Plant response rating, Lambsquarters",[4]; 250 g ai/ha,50
same,"Plant response rating, Barley, Spring",[5]; 16 g ai/ha,0
same,"Plant response rating, Barley, Spring",[5]; 31 g ai/ha,0
same,"Plant response rating, Barley, Spring",[5]; 62 g ai/ha,0
same,"Plant response rating, Barley, Spring",[5]; 125 g ai/ha,0
same,"Plant response rating, Barley, Spring",[5]; 250 g ai/ha,0
same,"Plant response rating, Mustard, Wild",[6]; 16 g ai/ha,60
same,"Plant response rating, Mustard, Wild",[6]; 31 g ai/ha,60
same,"Plant response rating, Mustard, Wild",[6]; 62 g ai/ha,60
same,"Plant response rating, Mustard, Wild",[6]; 125 g ai/ha,70
same,"Plant response rating, Mustard, Wild",[6]; 250 g ai/ha,85
same,"Plant response rating, Bluegrass",[7]; 16 g ai/ha,0
same,"Plant response rating, Bluegrass",[7]; 31 g ai/ha,0
same,"Plant response rating, Bluegrass",[7]; 62 g ai/ha,0
same,"Plant response rating, Bluegrass",[7]; 125 g ai/ha,0
same,"Plant response rating, Bluegrass",[7]; 250 g ai/ha,0
same,"Plant response rating, Ryegrass, Italian",[8]; 16 g ai/ha,0
same,"Plant response rating, Ryegrass, Italian",[8]; 31 g ai/ha,0
same,"Plant response rating, Ryegrass, Italian",[8]; 62 g ai/ha,0
same,"Plant response rating, Ryegrass, Italian",[8]; 125 g ai/ha,0
same,"Plant response rating, Ryegrass, Italian",[8]; 250 g ai/ha,10
same,"Plant response rating, Blackgrass",[9]; 16 g ai/ha,0
same,"Plant response rating, Blackgrass",[9]; 31 g ai/ha,0
same,"Plant response rating, Blackgrass",[9]; 62 g ai/ha,0
same,"Plant response rating, Blackgrass",[9]; 125 g ai/ha,10
same,"Plant response rating, Blackgrass",[9]; 250 g ai/ha,10
same,"Plant response rating, Bromegrass, Downy",[10]; 16 g ai/ha,0
same,"Plant response rating, Bromegrass, Downy",[10]; 31 g ai/ha,0
same,"Plant response rating, Bromegrass, Downy",[10]; 62 g ai/ha,0
same,"Plant response rating, Bromegrass, Downy",[10]; 125 g ai/ha,0
same,"Plant response rating, Bromegrass, Downy",[10]; 250 g ai/ha,0
"C#CCn1cc(C(=O)c2ccccc2)c(-c2cc(Cl)cc(Cl)c2)n1 [Compound 39, [3-(3,5-dichlorophenyl)-1-(2-propyn-1-yl)-1H-pyrazol-4-yl]phenylmethanone]","Plant response rating, Chickweed",[1]; 16 g ai/ha,0
same,"Plant response rating, Chickweed",[1]; 31 g ai/ha,0
same,"Plant response rating, Chickweed",[1]; 62 g ai/ha,10
same,"Plant response rating, Chickweed",[1]; 125 g ai/ha,30
same,"Plant response rating, Chickweed",[1]; 250 g ai/ha,50
same,"Plant response rating, Oilseed Rape",[2]; 16 g ai/ha,0
same,"Plant response rating, Oilseed Rape",[2]; 31 g ai/ha,0
same,"Plant response rating, Oilseed Rape",[2]; 62 g ai/ha,10
same,"Plant response rating, Oilseed Rape",[2]; 125 g ai/ha,20
same,"Plant response rating, Oilseed Rape",[2]; 250 g ai/ha,60
same,"Plant response rating, Barley, Winter",[3]; 16 g ai/ha,0
same,"Plant response rating, Barley, Winter",[3]; 31 g ai/ha,0
same,"Plant response rating, Barley, Winter",[3]; 62 g ai/ha,0
same,"Plant response rating, Barley, Winter",[3]; 125 g ai/ha,0
same,"Plant response rating, Barley, Winter",[3]; 250 g ai/ha,0
same,"Plant response rating, Lambsquarters",[4]; 16 g ai/ha,0
same,"Plant response rating, Lambsquarters",[4]; 31 g ai/ha,0
same,"Plant response rating, Lambsquarters",[4]; 62 g ai/ha,10
same,"Plant response rating, Lambsquarters",[4]; 125 g ai/ha,20
same,"Plant response rating, Lambsquarters",[4]; 250 g ai/ha,25
same,"Plant response rating, Barley, Spring",[5]; 16 g ai/ha,0
same,"Plant response rating, Barley, Spring",[5]; 31 g ai/ha,0
same,"Plant response rating, Barley, Spring",[5]; 62 g ai/ha,0
same,"Plant response rating, Barley, Spring",[5]; 125 g ai/ha,0
same,"Plant response rating, Barley, Spring",[5]; 250 g ai/ha,0
same,"Plant response rating, Mustard, Wild",[6]; 16 g ai/ha,20
same,"Plant response rating, Mustard, Wild",[6]; 31 g ai/ha,20
same,"Plant response rating, Mustard, Wild",[6]; 62 g ai/ha,70
same,"Plant response rating, Mustard, Wild",[6]; 125 g ai/ha,70
same,"Plant response rating, Mustard, Wild",[6]; 250 g ai/ha,80
same,"Plant response rating, Bluegrass",[7]; 16 g ai/ha,0
same,"Plant response rating, Bluegrass",[7]; 31 g ai/ha,0
same,"Plant response rating, Bluegrass",[7]; 62 g ai/ha,0
same,"Plant response rating, Bluegrass",[7]; 125 g ai/ha,0
same,"Plant response rating, Bluegrass",[7]; 250 g ai/ha,0
same,"Plant response rating, Ryegrass, Italian",[8]; 16 g ai/ha,0
same,"Plant response rating, Ryegrass, Italian",[8]; 31 g ai/ha,0
same,"Plant response rating, Ryegrass, Italian",[8]; 62 g ai/ha,0
same,"Plant response rating, Ryegrass, Italian",[8]; 125 g ai/ha,0
same,"Plant response rating, Ryegrass, Italian",[8]; 250 g ai/ha,10
same,"Plant response rating, Blackgrass",[9]; 16 g ai/ha,0
same,"Plant response rating, Blackgrass",[9]; 31 g ai/ha,0
same,"Plant response rating, Blackgrass",[9]; 62 g ai/ha,0
same,"Plant response rating, Blackgrass",[9]; 125 g ai/ha,0
same,"Plant response rating, Blackgrass",[9]; 250 g ai/ha,20
same,"Plant response rating, Bromegrass, Downy",[10]; 16 g ai/ha,0
same,"Plant response rating, Bromegrass, Downy",[10]; 31 g ai/ha,0
same,"Plant response rating, Bromegrass, Downy",[10]; 62 g ai/ha,0
same,"Plant response rating, Bromegrass, Downy",[10]; 125 g ai/ha,0
same,"Plant response rating, Bromegrass, Downy",[10]; 250 g ai/ha,0
same,AMAPA Obsd. (observed effect),[11]; 16 g a.i./ha,55
same,AMAPA Obsd. (observed effect),[11]; 31 g a.i./ha,86 and 78
same,AMAPA Obsd. (observed effect),[11]; 62 g a.i./ha,79 and 76
same,ZEAMD Obsd. (observed effect),"corn (ZEAMD, Zea mays); 16 g a.i./ha",0
same,ZEAMD Obsd. (observed effect),"corn (ZEAMD, Zea mays); 31 g a.i./ha",0
same,ZEAMD Obsd. (observed effect),"corn (ZEAMD, Zea mays); 62 g a.i./ha",0
same,KCHSC Obsd. (observed effect),[12]; 16 g a.i./ha,47
same,KCHSC Obsd. (observed effect),[12]; 31 g a.i./ha,60 and 47
same,KCHSC Obsd. (observed effect),[12]; 62 g a.i./ha,64
same,AMATA Obsd. (observed effect),[13]; 16 g a.i./ha,75
same,AMATA Obsd. (observed effect),[13]; 31 g a.i./ha,88 and 83
same,AMATA Obsd. (observed effect),[13]; 62 g a.i./ha,79
